Reference: US4503056A, “1-(Pyridazinyl)pyrazoline derivatives” (Abbott Laboratories, priority 1982, dated 1985)

Tests used:
[1] = test system: dermal Arthus reaction; assay: reverse passive Arthus reaction test; format: in vivo, Male Sprague-Dawley rats; conditions: rats; 100 mg/kg oral, 30 min before intradermal Anti-B.S.A.; lesion measured 4 hours later; reduction in lesion area vs control
Experimental: Proc. 35, 774 (1976). Each compound was administered orally to a group of four animals.
The reverse passive Arthus reaction test in rats is conducted as follows: Male Sprague-Dawley rats weighing approximately 130-160 g. are used, 4 rats per group. All animals are injected intravenously with 0.5 ml. 0.075% Bovine Serum Albumin (B.S.A.)+2% Evans Blue solution. Each rat then receives an oral dose of drug; one drug is administered per group.
Thirty minutes subsequent to drug dosing, each animal is injected intradermally with 0.05 ml. 1.44% Anti-B.S.A. into the dorsal skin. Four hours later the animals are sacrificed, the dorsal skin reflexed, and the lesion excised. Two perpendicular diameters of each lesion are measured. The average diameters of the lesions from the treated groups are compared with the average diameters from the control group to determine any drug effect.

[2] = test system: carrageenin pleurisy; assay: modification of the carrageenin pleurisy assay (Vinegar et al.); format: in vivo; conditions: Dose 100 (dose unit not given); for % Inhibition, Volume exudates: reduction in accumulation of exudate volume; for % Inhibition, Cells: reduction in accumulation of leukocytes
Description: The anti-inflammatory activity of these compounds was established by using a modification of the carrageenin pleurisy assay described by Vinegar et al. Proc. Soc. Exp. Biol. Med. 143:711 (1973).

| SMILES | % Inhibition of lesion of dermal Arthus reaction [1] | % Inhibition, Volume exudates [2] | % Inhibition, Cells [2] |
| --- | --- | --- | --- |
| NC1=NN(c2ccc(-c3cccc(Cl)c3)nn2)CC1 [1-[6'-(meta-chlorophenyl)pyridazin-3'-yl]-3-aminopyrazol-2-ene] | 51% | – | – |
| NC1=NN(c2ccc(-c3ccccc3Cl)nn2)CC1 [1-[6'-(ortho-chlorophenyl)-pyridazin-3'-yl]-3-aminopyrazol-2-ene] | 58% | – | – |
| NC1=NN(c2ccc(-c3ccccc3)nn2)CC1 [1-[6'-Phenylpyridazin-3'-yl]-3-aminopyrazol-2-ene] | 65% | 73% | 51% |
| CC1CC(N)=NN1c1ccc(-c2ccccc2)nn1 (stereo not drawn) [1-[6'-phenylpyridazin-3'-yl]-3-amino-5-methylpyrazol-2-ene] | 54% | – | – |
| CCCCC1C(=O)N(c2ccccc2)N(c2ccccc2)C1=O [Phenylbutazone, reference compound] | inactive | 59% | 13% |
